Laboratory results from patent publication US20090274691A1, “Use of CD25 binding molecules in steroid-resistant patients” (priority 2001, published 2009).
Entries after “also recorded” stand apart in the source; their conditions may differ. Like-named read-outs stand apart in the source and are kept apart here.

Columns and labels:
ulcerative colitis = details: chronically active, steroid-resistant or steroid-dependant ulcerative colitis; cited from earlier work
[1] = test system: PHA-stimulated lymphocytes; assay: Lymphocyte steroid sensitivity: dexamethasone inhibition of PHA-stimulated proliferation with and without basiliximab (Example 1); format: cell-based, human; details: for Steroid-sensitive (SS) or Steroid-resistant (SR): class by Imax with dexamethasone alone; for PHA-stimulated lymphocyte proliferation (cpm): dexamethasone 10^-6 mol/l; for PHA-stimulated lymphocyte proliferation (cpm) / % suppression / Imax (%): basiliximab 1 mg/l where added; for % suppression: dexamethasone 10^-7 mol/l; for Imax (%): inhibition of proliferation at dexamethasone 10^-6 mol/l
Protocol: (§1) Measurement of lymphocyte steroid sensitivity: The sensitivity of peripheral blood lymphocytes to glucocorticoids is assessed in a functional assay i.e. an in vitro proliferation assay stimulated by phytohaemagglutinin (PHA) and inhibited by dexamethasone. (Hearing S D, et al. Gut 1999; 45:382-8; Hearing S D, et al. J Clin Endocrinol Metab 1999; 84:4149-54). Peripheral blood samples are collected at 09:00 hours, and peripheral blood mononuclear cells (PBMC) are separated by buoyancy centrifugation. Buoyancy centrifugation includes the separation of lymphocytes from the blood sample by centrifugation over a ficol gradient. Ficol allows red blood cells to fall through, but prevents the through-movement of lymphocytes. Peripheral blood mononuclear cells (lymphocytes and marocyes) are collected from the ficol/plasma interface. PBMC proliferation is stimulated with PHA and inhibited with dexamethasone at serial 10 fold dilutions between 10^−6 and 10^−10 mol/1. i.e. 10^−6, 10^−7, 10^−8, 10^−9, 10^−10 mol/1. Cell proliferation is measured by tritiated thymidine uptake i.e. after 2 days of incubation, radioisotape labelled thymidine (^3H-thymidine) is added to the lymphocyte culture medium and became incorporated into the DNA of proliferating lymphocyes. After 6 hours the cells are transferred from the incubator and collected on a filter mat using a cell harvester. The cells are then washed out of the well. The lymphocyte DNA that has incorporated the thymidine is trapped in the filter paper. When radioactivity levels are measured the wells which contain high numbers of actively proliferating lymphocytes (and thus will have incorporated lots of thymidine into the DNA) will have high radioactivity levels. […] The results are calculated as mean counts per minute (cpm) of triplicate cultures. Thymidine incorporation for each concentration of dexamethasone is compared to that of PHA stimulated T lymphocytes in the absence of dexamethasone, and expressed as a percentage of the uninhibited positive control. The effect of different concentrations of basiliximab on lymphocyte proliferation is also studied. In addition, an equal concentration of basiliximab is added to each cell culture medium at all concentrations of dexamethasone and the antiproliferative effect measured.
Effect of […]® on steroid sensitivity: For all eight subjects, PHA-stimulated lymphocytes are cultured in the presence of increasing concentrations of dexamethasone (10^−10-10^−6 mol/l) in the presence and absence of basiliximab (1 mg/l). In previous studies of ulcerative colitis carried out by the inventor, maximal suppression (Imax)<60% correlated with a poor response to steroid therapy (clinical steroid resistance). The exact value of Imax cannot be measured as it is the inhibition at an infinitely high level of dexamethasone. Thus, the percentage inhibition of proliferation observed at the maximum dexamethasone concentration applied (10^−6 mol/l) is used as the measure of Imax. In practice, there is good agreement between Imax and the estimated asymptotic value for maximal inhibition obtained from dose-response curves (Hearing S D et al (1999) Clin. Endoctrinol. Metab 84:4149-54). A concentration of dexamethasone of 10^−7 mol/l is approximately equivalent in terms of glucocorticoid activity to the serum concentrations of hydrocortisone achieved with intravenous therapy at standard doses. Thus, to make comparisons with the potential effect of basiliximab in vivo, the steroid sensitising effect of basiliximab at this concentration of dexamethasone may also be of interest. […] The subjects are shown in decreasing order of steroid sensitivity (with the most sensitive on the left).

[2] = test system: phytohaemagglutinin stimulated lymphocytes; assay: Lymphocyte steroid sensitivity (Imax) with and without basiliximab, 32 subjects (Example 2); format: cell-based, human
Protocol: Peripheral blood lymphocytes are isolated from 32 subjects (25 healthy volunteers and 7 patients with quiescent Ulcerative Colitis), on 41 occasions, using buoyant density centrifugation. Lymphocyte steroid sensitivity is assessed by measuring the antiproliferative effect of dexamethasone (DEX) on phytohaemagglutinin stimulated lymphocytes. Maximum steroid induced suppression is expressed as a % of control lymphocyte proliferation (Imax). Imax is measured in the absence and presence of basiliximab (1 mg/L).

steroid-resistant asthma = details: after 8 weeks; cited from earlier work
[3] = test system: peripheral blood lymphocytes; details: high concentrations of prednisolone, cited from earlier work
[4] = test system: PHA stimulated peripheral blood lymphocytes; assay: PHA-induced lymphocyte proliferation (tritiated thymidine uptake), basiliximab in the absence of steroids; format: cell-based, human; details: for PHA-induced cell proliferation (cpm) / Inhibition (%): basiliximab 1 mg/l, absence of steroids; for Inhibition (%): vs PHA alone
Protocol: as §1
Effect of […]® on lymphocyte proliferation: Serum concentration of 0.2 mg/l of basiliximab produces >90% IL-2R occupancy. To test the antiproliferative in vitro effect of basiliximab, various concentrations of between 0.01 and 10 mg/l of basiliximab are incubated with lymphocytes in the absence of steroids. These assays confirm that an in vitro concentration of >0.1 to 0.3 mg/l basiliximab is required to produce the in vitro effect of basiliximab. For further studies on the same subjects, a concentration of 1 mg/l is used. In total, the same eight subjects are studied in each experiment. The effect of basiliximab at a concentration of 1 mg/l on PHA-induced cell proliferation in the absence of steroids is shown in Table 1

IL-2R = target: T1, IL-2R (Homo sapiens, UniProt P01589); details: serum concentration of 0.2 mg/l; cited from earlier work
T1 sequence (P01589 22-272): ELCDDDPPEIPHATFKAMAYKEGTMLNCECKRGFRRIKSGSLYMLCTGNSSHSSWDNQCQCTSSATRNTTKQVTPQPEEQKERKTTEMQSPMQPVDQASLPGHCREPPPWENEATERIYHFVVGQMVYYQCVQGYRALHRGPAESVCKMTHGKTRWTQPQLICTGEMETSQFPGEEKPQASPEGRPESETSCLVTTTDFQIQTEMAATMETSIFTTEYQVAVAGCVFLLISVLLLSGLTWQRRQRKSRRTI

[5] = at the dosage levels employed; cited from earlier work

Compound: Cn1cnc([N+](=O)[O-])c1Sc1ncnc2nc[nH]c12 [Azathioprine]
- delayed onset of action (ulcerative colitis): 34 months

Compound: C[C@@H]1C[C@H]2[C@@H]3CCC4=CC(=O)C=C[C@]4(C)[C@@]3(F)[C@@H](O)C[C@]2(C)[C@@]1(O)C(=O)CO [Dexamethasone, dexamethasone]
- Steroid-sensitive (SS) or Steroid-resistant (SR) ([1]; subject 1): SS (steroid-sensitive (Imax>60%; subjects 1-4))
- PHA-stimulated lymphocyte proliferation (cpm) ([1]; subject 1): 3100 cpm
- % suppression ([1]; subject 1): 87%
- Imax (%) ([1]; subject 1): 92%
- Steroid-sensitive (SS) or Steroid-resistant (SR) ([1]; subject 2): SS (steroid-sensitive (Imax>60%; subjects 1-4))
- PHA-stimulated lymphocyte proliferation (cpm) ([1]; subject 2): 4109 cpm
- % suppression ([1]; subject 2): 79%
- Imax (%) ([1]; subject 2): 84%
- Steroid-sensitive (SS) or Steroid-resistant (SR) ([1]; subject 3): SS (steroid-sensitive (Imax>60%; subjects 1-4))
- PHA-stimulated lymphocyte proliferation (cpm) ([1]; subject 3): 9477 cpm
- % suppression ([1]; subject 3): 65%
- Imax (%) ([1]; subject 3): 77%
- Steroid-sensitive (SS) or Steroid-resistant (SR) ([1]; subject 4): SS (steroid-sensitive (Imax>60%; subjects 1-4))
- PHA-stimulated lymphocyte proliferation (cpm) ([1]; subject 4): 11568 cpm
- % suppression ([1]; subject 4): 42%
- Imax (%) ([1]; subject 4): 64%
- Steroid-sensitive (SS) or Steroid-resistant (SR) ([1]; subject 5): SR (steroid-resistant (Imax<60%; subjects 5-8))
- PHA-stimulated lymphocyte proliferation (cpm) ([1]; subject 5): 21685 cpm
- % suppression ([1]; subject 5): 20%
- Imax (%) ([1]; subject 5): 52%
- Steroid-sensitive (SS) or Steroid-resistant (SR) ([1]; subject 6): SR (steroid-resistant (Imax<60%; subjects 5-8))
- PHA-stimulated lymphocyte proliferation (cpm) ([1]; subject 6): 36495 cpm
- % suppression ([1]; subject 6): 32%
- Imax (%) ([1]; subject 6): 45%
- Steroid-sensitive (SS) or Steroid-resistant (SR) ([1]; subject 7): SR (steroid-resistant (Imax<60%; subjects 5-8))
- PHA-stimulated lymphocyte proliferation (cpm) ([1]; subject 7): 18669 cpm
- % suppression ([1]; subject 7): 29%
- Imax (%) ([1]; subject 7): 35%
- Steroid-sensitive (SS) or Steroid-resistant (SR) ([1]; subject 8): SR (steroid-resistant (Imax<60%; subjects 5-8))
- PHA-stimulated lymphocyte proliferation (cpm) ([1]; subject 8): 24681 cpm
- % suppression ([1]; subject 8): 36%
- Imax (%) ([1]; subject 8): 33%
- Median Imax (%) ([2]; 32 subjects on 41 occasions, basiliximab 1 mg/L where added): 78.0%

Compound: CN(Cc1cnc2nc(N)nc(N)c2n1)c1ccc(C(=O)N[C@@H](CCC(=O)O)C(=O)O)cc1 [methotrexate]
- bronchial muscosal inflammation (steroid-resistant asthma): reduced
- lymphocyte steroid sensitivity (steroid-resistant asthma): increased

Compound: C[C@]12C=CC(=O)C=C1CC[C@@H]1[C@@H]2[C@@H](O)C[C@@]2(C)[C@H]1CC[C@]2(O)C(=O)CO [prednisolone]
- percentage of apoptotic cells ([3]; lymphocytes of steroid-resistant SLE group): 44.8%
- percentage of apoptotic cells ([3]; lymphocytes of steroid-sensitive SLE group): 68.8%

Compound: basiliximab
- in vitro concentration required to produce the in vitro (antiproliferative) effect ([4]; 0.01 to 10 mg/l incubated with lymphocytes in the absence of steroids): 0.1 to 0.3 mg/L
- PHA-induced cell proliferation (cpm) ([4]; mean of 8 subjects): 23943 cpm
- Inhibition (%) ([4]; mean of 8 subjects): 37.8%
- PHA-induced cell proliferation (cpm) ([4]; subject 1): 21827 cpm
- Inhibition (%) ([4]; subject 1): 43.5%
- PHA-induced cell proliferation (cpm) ([4]; subject 2): 15157 cpm
- Inhibition (%) ([4]; subject 2): 39.9%
- PHA-induced cell proliferation (cpm) ([4]; subject 3): 27239 cpm
- Inhibition (%) ([4]; subject 3): 33.3%
- PHA-induced cell proliferation (cpm) ([4]; subject 4): 27538 cpm
- Inhibition (%) ([4]; subject 4): 15.4%
- PHA-induced cell proliferation (cpm) ([4]; subject 5): 21446 cpm
- Inhibition (%) ([4]; subject 5): 52.8%
- PHA-induced cell proliferation (cpm) ([4]; subject 6): 35003 cpm
- Inhibition (%) ([4]; subject 6): 47.1%
- PHA-induced cell proliferation (cpm) ([4]; subject 7): 16122 cpm
- Inhibition (%) ([4]; subject 7): 44.2%
- PHA-induced cell proliferation (cpm) ([4]; subject 8): 27209 cpm
- Inhibition (%) ([4]; subject 8): 26.4%
- Modulation of lymphocyte steroid sensitivity (LSS) of steroid-resistant subjects ([1]; effect on Imax, subjects 5-8, basiliximab 1 mg/l): all become Steroid-sensitive
- Enhancement of the anti-proliferative effect of DEX ([2]; basiliximab 1 mg/L, Wilcoxon signed-rank test, p<0.0001): significantly enhanced; also recorded: marked in vitro steroid enhancing effect
- Modulation of steroid-resistant subjects (Imax<60%) to steroid-sensitive ([2]; in vitro, basiliximab 1 mg/L): All 8 steroid-resistant subjects (Imax<60%) are modulated (in vitro) to steroid-sensitive
- IL-2R occupancy (IL-2R): > 90%
- Side-effects / safety of administration [5]: safe

Compound: daclizumab
- Side-effects / safety of administration [5]: safe
